The record followed here is PMC9260854 (Biochemistry, 2022).

The pKi is the Ki on a negative log10 scale, so that one unit is a factor of ten. Higher therefore signals a small Ki.

For experiment [1], the target named is T1, SULT2B1b S347D spin-labeled at residue 171 (Homo sapiens, UniProt O00204, C225S/C278S/C81S/S347D/T171C).
T1 sequence (O00204 1-365 C81S/T171C/C225S/C278S/S347D): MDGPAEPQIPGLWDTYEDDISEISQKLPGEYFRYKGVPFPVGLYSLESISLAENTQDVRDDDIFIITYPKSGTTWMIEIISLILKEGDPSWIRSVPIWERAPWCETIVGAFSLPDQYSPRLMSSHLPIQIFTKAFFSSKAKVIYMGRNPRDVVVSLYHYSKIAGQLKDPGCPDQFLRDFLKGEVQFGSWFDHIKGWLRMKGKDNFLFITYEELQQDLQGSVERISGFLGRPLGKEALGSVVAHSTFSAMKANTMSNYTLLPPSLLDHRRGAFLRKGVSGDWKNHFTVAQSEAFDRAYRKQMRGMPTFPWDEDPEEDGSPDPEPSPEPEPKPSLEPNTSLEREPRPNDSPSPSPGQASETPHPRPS
Kind of experiment: Initial-rate parameters, spin-labeled mutant 171. It is filed as biochemical.

Experiment [2] concerns the target T2, SULT2B1b, S347D, W98A (Homo sapiens, UniProt O00204, S347D/W98A).
T2 sequence (O00204 1-365 W98A/S347D): T1 sequence (O00204 1-365 C81S/T171C/C225S/C278S/S347D) with S81C, W98A, C171T, S225C, S278C
Nature of the experiment: Initial-rate parameters, direct-contact mutant W98A.

The target in experiment [3] is T3, SULT2B1b, S347D, W13A (Homo sapiens, UniProt O00204, S347D/W13A).
T3 sequence (O00204 1-365 W13A/S347D): T1 sequence (O00204 1-365 C81S/T171C/C225S/C278S/S347D) with W13A, S81C, C171T, S225C, S278C
Nature of the experiment: Initial-rate parameters, direct-contact mutant W13A.

The target in experiment [4] is T4, native non-tagged SULT2B1b (Homo sapiens, UniProt O00204).
T4 sequence (O00204 1-365): T1 sequence (O00204 1-365 C81S/T171C/C225S/C278S/S347D) with S81C, C171T, S225C, S278C, D347S
Kind of experiment: Initial-rate 1-HP sulfonation inhibition, native. Type of experiment: biochemical. The note with it: native enzyme.

The target of experiment [5] is T5, SULT2B1b S347D (Homo sapiens, UniProt O00204, S347D).
T5 sequence (O00204 1-365 S347D): T1 sequence (O00204 1-365 C81S/T171C/C225S/C278S/S347D) with S81C, C171T, S225C, S278C
Kind of experiment: Initial-rate 1-HP sulfonation.

In experiment [6] the target is T6, SULT2B1b S347D spin-labeled at residue 21 (Homo sapiens, UniProt O00204, C225S/C278S/C81S/S21C/S347D).
T6 sequence (O00204 1-365 S21C/C81S/C225S/C278S/S347D): T1 sequence (O00204 1-365 C81S/T171C/C225S/C278S/S347D) with S21C, C171T
Nature of the experiment: Initial-rate parameters, spin-labeled mutant 21. It is filed as biochemical.

Experiment [7] addresses T7, SULT2A1 (Homo sapiens, UniProt Q06520).
T7 sequence (Q06520 1-285): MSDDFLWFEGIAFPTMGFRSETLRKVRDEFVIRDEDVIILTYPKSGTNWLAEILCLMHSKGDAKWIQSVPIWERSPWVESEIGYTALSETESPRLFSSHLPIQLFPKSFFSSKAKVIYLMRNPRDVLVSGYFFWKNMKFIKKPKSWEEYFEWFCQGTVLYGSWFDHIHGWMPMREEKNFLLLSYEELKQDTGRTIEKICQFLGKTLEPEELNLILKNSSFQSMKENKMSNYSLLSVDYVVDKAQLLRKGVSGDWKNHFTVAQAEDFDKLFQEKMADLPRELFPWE
Nature of the experiment: Initial-rate 1-HP sulfonation inhibition. It is filed as biochemical.

Substitutions are numbered along the chain they refer to. pKi: −log10 of the molar value. Like-named read-outs stand apart in the source and are kept apart here.

Take `O=c1c(O)c(-c2ccc(O)c(O)c2)oc2cc(O)cc(O)c12` [quercetin]: the pKi in experiment [1] was 6.46; in experiment [2], 5.28; in experiment [3], 5.12; in experiment [6], 6.48. Further, the “α WT (quercetin)” value in experiment [4] is on record as 0.08 ± 0.01. For the same compound, in experiment [5] (affinity less for SULT2B1b than SULT1A1), the “quercetin affinity, SULT2B1b relative to SULT1A1” value is listed as ~ 68 fold. In addition, in experiment [5] (at saturation), the “slowing of turnover at saturating quercetin” value was ~ 13 fold. In experiment [5] (saturating PAPS and 1-HP, tag-cleaved enzyme), the “α (fraction of enzyme turnover at saturating inhibitor), quercetin” value amounted to 0.08 ± 0.01. Also, the “turnover at saturating quercetin” value in experiment [5] (saturating quercetin) was 0.20 ± 0.02 s⁻¹. For the same compound, the inhibition by quercetin result is “not inhibited” in experiment [7] and “No inhibition was detected” in experiment [7] (up to 100 μM quercetin).
